Measured values published in US20240336601A1 (Chulalongkorn University, priority 2020, published 2024).

How the values were obtained:
[1] = target: interaction between PD-1 and PD-L1 (Homo sapiens, UniProt Q9NZQ7); assay: PD-1/PD-L1 protein-protein interaction assay (ALPHA); format: binding; settings: 2 nM His-tagged human PD-L1, 0.6 nM PD-1-Fc, AlphaScreen
PD-1/PD-L1 interaction = target: T1, PD-1/PD-L1 interaction (Homo sapiens, UniProt Q9NZQ7); assay: PD-1/PD-L1 blockage cell-based bioassay (Jurkat NFAT luciferase / CHO-PDL1 co-culture); settings: Jurkat NFAT cells co-cultured with CHO-PDL1 cells, 6 h, luminescence
T1 construct: expressed in transfected cells
T1 sequence (Q9NZQ7 19-290): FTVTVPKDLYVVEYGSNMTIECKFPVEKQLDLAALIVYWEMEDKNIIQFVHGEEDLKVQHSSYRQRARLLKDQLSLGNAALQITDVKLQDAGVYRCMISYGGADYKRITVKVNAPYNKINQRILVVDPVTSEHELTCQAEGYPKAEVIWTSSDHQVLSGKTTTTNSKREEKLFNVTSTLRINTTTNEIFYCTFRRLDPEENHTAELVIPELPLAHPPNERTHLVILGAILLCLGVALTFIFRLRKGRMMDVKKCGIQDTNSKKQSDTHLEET

interaction between PD-1 and PD-L1, sequence (Q9NZQ7 19-238 limits assumed): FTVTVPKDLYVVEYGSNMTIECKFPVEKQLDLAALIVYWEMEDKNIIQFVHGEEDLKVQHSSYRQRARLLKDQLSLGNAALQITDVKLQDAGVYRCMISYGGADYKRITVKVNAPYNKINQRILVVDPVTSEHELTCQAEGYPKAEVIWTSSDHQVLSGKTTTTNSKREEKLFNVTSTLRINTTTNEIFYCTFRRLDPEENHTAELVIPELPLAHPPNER

| SMILES | IC50 [1] [nM] | IC50 (PD-1/PD-L1 interaction) [nM] |
| --- | --- | --- |
| COc1cc(-n2ccc3c(-c4cccc(-c5ccc(CNC[C@@H]6CCC(=O)N6)c(OC)n5)c4Cl)cccc32)cc(OC)c1CN1CC[C@H](O)C1 [Example 83, (S)-5-((((6-(2-chloro-3-(1-(4-(((S)-3-hydroxypyrrolidin-1-yl)methyl)-3,5-dimethoxyphenyl)-1H-indol-4-yl)phenyl)-2-methoxypyridin-3-yl)methyl)amino)methyl)pyrrolidin-2-one] | 1 to 10 | 201 to 2000 |
| COc1cc(-n2ccc3c(-c4cccc(-c5ccc(CNC[C@@H]6CCC(=O)N6)c(OC)n5)c4Cl)cccc32)cc(OC)c1CN1CC[C@@H](NC(C)=O)C1 [Example 38] | 10 to 100 | > 2000 |
| COc1cc(-n2ccc3c(-c4cccc(-c5ccc(CN6CC(C)(C(=O)O)C6)c(OC)n5)c4Cl)cccc32)cc(OC)c1CNC[C@@H]1CCC(=O)N1 [Example 37] | 1 to 10 | 201 to 2000 |
| COc1cc(-n2ncc3c(-c4cccc(-c5ccc(CN6CC(C(C)(C)O)C6)c(OC)n5)c4Cl)cccc32)cc(OC)c1CN1CC2(CCC(=O)N2)C1 [Example 140, 2-(4-(4-(2-chloro-3-(5-((3-(2-hydroxypropan-2-yl)azetidin-1-yl)methyl)-6-methoxypyridin-2-yl)phenyl)-1H-indazol-1-yl)-2,6-dimethoxybenzyl)-2,5-diazaspiro[3.4]octan-6-one] | 1 to 10 | 201 to 2000 |
| COc1cc(-n2ncc3c(-c4cccc(-c5ccc(CN6CC(C)(C(=O)NC7CC7)C6)c(OC)n5)c4Cl)cccc32)cc(OC)c1CNC[C@H]1C[C@@H](O)C1 [Example 95, 1-((6-(2-chloro-3-(1-(4-((((cis-3-hydroxycyclobutyl)methyl)amino)methyl)-3,5-dimethoxyphenyl)-1H-indazol-4-yl)phenyl)-2-methoxypyridin-3-yl)methyl)-N-cyclopropyl-3-methylazetidine-3-carboxamide] | 1 to 10 | 201 to 2000 |
| CCOC(=O)[C@@H](CO)NCc1c(OC)cc(-n2ncc3c(-c4cccc(-c5ccc(CNC[C@@H]6CCC(=O)N6)c(OC)n5)c4Cl)cccc32)cc1OC [Example 147, Ethyl (2R)-2-[({4-[4-(2-chloro-3-{6-methoxy-5-[({[(2S)-5-oxopyrrolidin-2-yl]methyl)amino)methyl}pyridin-2-yl}phenyl)-1H-indazol-1-yl]-2,6-dimethoxyphenyl}methyl)amino]-3-hydroxypropanoate] | 1 to 10 | 201 to 2000 |
| COc1cc(-n2ccc3c(-c4cccc(-c5ccc(CNC[C@@H]6CCC(=O)N6)c(OC)n5)c4Cl)cccc32)cc(OC)c1CNCC(C)(C)C(=O)O [Example 42] | < 1 | < 200 |
| COc1cc(-n2ccc3c(-c4cccc(-c5ccc(CNC[C@@H]6CCC(=O)N6)c(OC)n5)c4Cl)cccc32)cc(OC)c1CN1CC(C)(O)C1 [Example 53] | < 1 | 201 to 2000 |
| COc1cc(-n2ncc3c(-c4cccc(-c5ccc(C6=NCCN6)c(OC)n5)c4Cl)cccc32)cc(OC)c1CNC[C@H]1C[C@@H](O)C1 [Example 77, cis-3-(((4-(4-(2-chloro-3-(5-(4,5-dihydro-1H-imidazol-2-yl)-6-methoxypyridin-2-yl)phenyl)-1H-indazol-1-yl)-2,6-dimethoxybenzyl)amino)methyl)cyclobutanol] | < 1 | 201 to 2000 |
| COc1cc(-n2ccc3c(-c4cccc(-c5ccc(CN6CC(C)(O)C6)c(OC)n5)c4Cl)cccc32)cc(OC)c1CN1CC2(CNC(=O)C2)C1 [Example 84, 2-(4-(4-(2-chloro-3-(5-((3-hydroxy-3-methylazetidin-1-yl)methyl)-6-methoxypyridin-2-yl)phenyl)-1H-indol-1-yl)-2,6-dimethoxybenzyl)-2,6-diazaspiro[3.4]octan-7-one] | < 1 | 201 to 2000 |
| COc1cc(-n2ncc3c(-c4cccc(-c5ccc(CN6CC(C)(O)C6)c(OC)n5)c4Cl)cccc32)cc(OC)c1CNC[C@@H]1CCC(=O)N1 [Example 54] | 10 to 100 | > 2000 |
| COc1cc(-n2ccc3c(-c4cccc(-c5ccc(CNCC(C)(C)C(=O)O)c(OC)n5)c4Cl)cccc32)cc(OC)c1CNC[C@@H]1CCC(=O)N1 [Example 48] | 10 to 100 | > 2000 |
| COc1cc(-n2ncc3c(-c4cccc(-c5ccc(CN6CC7(CNC(=O)C7)C6)c(OC)n5)c4Cl)cccc32)cc(OC)c1CN1CC(C)(C(N)=O)C1 [Example 103, 1-(4-(4-(2-chloro-3-(6-methoxy-5-((7-oxo-2,6-diazaspiro[3.4]octan-2-yl)methyl)pyridin-2-yl)phenyl)-1H-indazol-1-yl)-2,6-dimethoxybenzyl)-3-methylazetidine-3-carboxamide] | 1 to 10 | < 200 |
| COc1cc(-n2ncc3c(-c4cccc(-c5ccc(CN6CC7(CNC(=O)C7)C6)c(OC)n5)c4F)cccc32)cc(OC)c1CNC[C@@H]1CCC(=O)N1 [Example 135, (S)-2-((6-(2-fluoro-3-(1-(3,5-dimethoxy-4-((((5-oxopyrrolidin-2-yl)methyl)amino)methyl)phenyl)-1H-indazol-4-yl)phenyl)-2-methoxypyridin-3-yl)methyl)-2,6-diazaspiro[3.4]octan-7-one] | < 1 | < 200 |
| COc1cc(-n2ncc3c(-c4cccc(-c5ccc(CN[C@H]6C[C@@H](O)C6)c(OC)n5)c4Cl)cccc32)ncc1CN1CC(C)(O)C1 [Example 124, 1-((6-(4-(2-chloro-(5-(((cis-3-hydroxycyclobutyl)amino)methyl)-6-methoxypyridin-2-yl)phenyl)-1H-indazol-1-yl)-4-methoxypyridin-3-yl)methyl)-3-methylazetidin-3-ol] | < 1 | 201 to 2000 |
| COc1cc(-n2ncc3c(-c4cccc(-c5ccc(CNC[C@H]6C[C@@H](O)C6)c(OC)n5)c4Cl)cccc32)cc(OC)c1CN1CC(C)(O)C1 [Example 68, 1-(4-(4-(2-chloro-3-(5-((((cis-3-hydroxycyclobutyl)methyl)amino)methyl)-6-methoxypyridin-2-yl)phenyl)-1H-indazol-1-yl)-2,6-dimethoxybenzyl)-3-methylazetidin-3-ol] | < 1 | < 200 |

The next lines start with the values.

| IC50 [1] [nM] | IC50 (PD-1/PD-L1 interaction) [nM] | SMILES |
| --- | --- | --- |
| < 1 | < 200 | COc1cc(-c2cccc(-c3cccc4c3cnn4-c3cc(OC)c(CN4CC5(CNC(=O)C5)C4)c(OC)c3)c2Cl)cc(F)c1CN(C)C12CCC(C(=O)O)(CC1)CC2 [Example 160, 4-(((2′-chloro-3′-(1-(3,5-dimethoxy-4-((7-oxo-2,6-diazaspiro[3.4]octan-2-yl)methyl)phenyl)-1H-indazol-4-yl)-3-fluoro-5-methoxy-[1,1′-biphenyl]-4-yl)methyl)(methyl)amino)bicyclo[2.2.2]octane-1-carboxylic acid] |
| < 1 | < 200 | COc1cc(-n2ncc3c(-c4cccc(-c5ccc(CNC[C@@H]6CCC(=O)N6)c(OC)n5)c4Cl)cccc32)cc(OC)c1CN[C@H](CO)C(=O)O [Example 123, (4-(4-(2-chloro-3-(6-methoxy-5-(((((S)-5-oxopyrrolidin-2-yl)methyl)amino)methyl)pyridin-2-yl)phenyl)-1H-indazol-1-yl)-2,6-dimethoxybenzyl)-D-serine] |
| < 1 | < 200 | COc1cc(-n2ncc3c(-c4cccc(-c5ccc(C6=NCCN6)c(OC)n5)c4Cl)cccc32)cc(OC)c1CN1CC2(CNC(=O)C2)C1 [Example 76, 2-(4-(4-(2-chloro-3-(5-(4,5-dihydro-1H-imidazol-2-yl)-6-methoxypyridin-2-yl)phenyl)-1H-indazol-1-yl)-2,6-dimethoxybenzyl)-2,6-diazaspiro[3.4]octan-7-one] |
| < 1 | < 200 | COc1cc(-n2ncc3c(-c4cccc(-c5ccc(C6=NCCN6)c(OC)n5)c4Cl)cccc32)cc(OC)c1CNC[C@@H]1CCC(=O)N1 [Example 74, (S)-5-(((4-(4-(2-chloro-3-(5-(4,5-dihydro-1H-imidazol-2-yl)-6-methoxypyridin-2-yl)phenyl)-1H-indazol-1-yl)-2,6-dimethoxybenzyl)amino)methyl)pyrrolidin-2-one] |
| < 1 | 201 to 2000 | COc1cc(-n2ncc3c(-c4cccc(-c5ccc(CN[C@H]6C[C@@H](O)C6)c(OC)n5)c4Cl)cccc32)cc(OC)c1CN[C@@H](CO)C(N)=O [Example 121, (S)-2-((4-(4-(2-chloro-3-(5-(((cis-3-hydroxycyclobutyl)amino)methyl)-6-methoxypyridin-2-yl)phenyl)-1H-indazol-1-yl)-2,6-dimethoxybenzyl)amino)-3-hydroxypropanamide] |
| < 1 | 201 to 2000 | COc1cc(-n2ncc3c(-c4cccc(-c5ccc(CN[C@H]6C[C@@H](O)C6)c(OC)n5)c4Cl)cccc32)ncc1CN[C@H](CO)C(=O)O [Example 120, ((6-(4-(2-chloro-3-(5-(((cis-3-hydroxycyclobutyl)amino)methyl)-6-methoxypyridin-2-yl)phenyl)-1H-indazol-1-yl)-4-methoxypyridin-3-yl)methyl)-D-serine] |
| < 1 | < 200 | COc1cc(-n2ncc3c(-c4cccc(-c5ccc(CN6CC7(CNC(=O)C7)C6)c(OC)n5)c4Cl)cccc32)cc(OC)c1CN[C@H](C(=O)O)[C@@H](C)O [Example 141, (4-(4-(2-chloro-3-(6-methoxy-5-((7-oxo-2,6-diazaspiro[3.4]octan-2-yl)methyl)pyridin-2-yl)phenyl)-1H-indazol-1-yl)-2,6-dimethoxybenzyl)-L-threonine] |
| < 1 | < 200 | COc1cc(-n2ncc3c(-c4cccc(-c5ccc(CN[C@H]6C[C@@H](O)C6)c(OC)n5)c4Cl)cccc32)cc(OC)c1CNC[C@@H](C)O [Example 113, cis-3-(((6-(2-chloro-3-(1-(4-((((R)-2-hydroxypropyl)amino)methyl)-3,5-dimethoxyphenyl)-1H-indazol-4-yl)phenyl)-2-methoxypyridin-3-yl)methyl)amino)cyclobutan-1-ol] |
